Patent US12459902B2, “Crystalline forms of 4-(7-hydroxy-2-isopropyl-4-oxo-4H-quinazolin-3-yl)-benzonitrile and formulations thereof” (priority 2020, dated 2025)
Values after ≈ are worked out from the molar mass of the structure shown.

Legend:
[1] = Water uptake on exposure to moisture (hygroscopicity); assay type: physicochemical; details: for maximum water uptake: up to 95% RH at 25° C.
[2] = assay type: physicochemical
Solubility in water = details: water at 25° C.

Structure (SMILES): CC(C)c1nc2cc(O)ccc2c(=O)n1-c1ccc(C#N)cc1 [Hydrate HB, 4-(7-Hydroxy-2-isopropyl-4-oxo-4H-quinazolin-3-yl)-benzonitrile]
- additional water uptake above 70% RH ([1]; above 70% RH, at 95% RH, 25° C.): about 2.5%
- water uptake up to 70% RH ([1]; up to 70% RH at 25° C.): slight uptake of water

Structure (SMILES): CC(C)c1nc2cc(O)ccc2c(=O)n1-c1ccc(C#N)cc1 [crystal form B, 4-(7-Hydroxy-2-isopropyl-4-oxo-4H-quinazolin-3-yl)-benzonitrile]
- conversion of equimolar suspension of crystal form B and crystal form M ([2]; 20° C., 30° C. and 35° C., isopropylacetate, dichloromethane, ethanol or water, 7 days): converted after 7 days almost completely into crystal form M

Structure (SMILES): CC(C)c1nc2cc(O)ccc2c(=O)n1-c1ccc(C#N)cc1 [crystal form E, 4-(7-Hydroxy-2-isopropyl-4-oxo-4H-quinazolin-3-yl)-benzonitrile]
- conversion of equimolar suspension of crystal form M and crystal form E ([2]; 30° C., 35° C. and 45° C., isopropylacetate, dichloromethane, ethanol or water, 7 days): converted after 7 days completely into Modification M

Structure (SMILES): CC(C)c1nc2cc(O)ccc2c(=O)n1-c1ccc(C#N)cc1 [crystal form K′, 4-(7-Hydroxy-2-isopropyl-4-oxo-4H-quinazolin-3-yl)-benzonitrile]
- hygroscopicity ([1]; 25° C.): non-hygroscopic
- maximum water uptake [1]: less than 0.2%

Structure (SMILES): CC(C)c1nc2cc(O)ccc2c(=O)n1-c1ccc(C#N)cc1 [crystal form M, 4-(7-Hydroxy-2-isopropyl-4-oxo-4H-quinazolin-3-yl)-benzonitrile]
- hygroscopicity ([1]; 25° C.): non hygroscopic
- maximum water uptake [1]: less than 0.1%
- thermodynamic stability relative to crystal form B ([2]; temperature range from 20° C. to 35° C.): thermodynamically more stable than crystal form B
- thermodynamic stability relative to crystal form Q ([2]; temperature range from 22° C. to 35° C.): thermodynamically more stable than crystal form Q
- thermodynamic stability relative to crystal form E ([2]; temperature range from 30° C. to 45° C.): thermodynamically more stable than crystal form E
- solubility in water (Solubility in water): 40 µg/mL (≈ 131 µM)

Structure (SMILES): CC(C)c1nc2cc(O)ccc2c(=O)n1-c1ccc(C#N)cc1 [crystal form Q, 4-(7-Hydroxy-2-isopropyl-4-oxo-4H-quinazolin-3-yl)-benzonitrile]
- hygroscopicity ([1]; 25° C.): non hygroscopic
- maximum water uptake [1]: less than 0.1%
- conversion of equimolar suspension of crystal form M and crystal form Q ([2]; 22° C., 30° C. and 35° C., isopropylacetate, dichloromethane, ethanol or water, 7 days): converted after 7 days completely into crystal form M
